Values after ≈ are worked out from the molar mass of the structure shown.
How the values were obtained:
Mcl-1 [1] = test: Western blotting, inhibition (downregulation) of Mcl-1 in tumor cells, Example 23; assay type: cell-based; conditions: for inhibition against Mcl-1: Western blotting, tumor cells
Description: The interest protein was detected by the corresponding antibody. The expression of the interest protein in the cells was detected by horseradish peroxidase-labeled secondary antibodies in combination with ECL coloration method. […] The concentration of the protein bands in the Western images were carried out semiquantitative analysis and normalization treatment with KODAK Gel Logic 1500 imaging system software.

MCF-7 cells = test: cytotoxicity depending on BAX/BAK, MTT, MCF-7 cells with or without BAX/BAK interfering plasmid; assay type: cell-based
Description: 3 ng of BAX/BAK interfering plasmid was transfected into MCF-7 cells by using calcium phosphate coprecipitation method, 24 hours later, the cells were collected. The expressions after the BAX and BAK proteins interfered with RNA was detected by Western, and the cell groups without plasmid transfection were treated similarly and were set as the control group. The transfected cells were inoculated in a 96-well plate (1×10^5 cells/well), the control experiment of the cell group without plasmid transfection was carried out in parallel. The compound 3-thiomorpholinyl-8-oxo-8 H-acenaphtho[1,2-b]pyrrole-9-carbonitrile to be detected was added thereinto according to the concentration gradient designed before the experiment. 48 hours later, the cellular vitality was detected by MTT. The experimental results were shown in FIG. 6, Gossypol as nonspecific BH3 analogue was treated in parallel.

Bax protein = test: co-localization between Bax protein and chondriosome, Bax-YFP transfected MCF-7 cells; assay type: cell-based; conditions: for Time for which the compound drove the BAX to shift towards the chondriosome: goes with the concentration of E14; for Concentration at which the compound drove the BAX to shift towards the chondriosome: goes with the time of E15
Description: 5 ng of Bax-YFP plasmid was transfected into MCF-7 cells by using calcium phosphate coprecipitation method, 24 hours later, the cells were inoculated in a 6-well plate (0.2×10^6 cells/well), and 10 μM of the compound 3-thiomorpholinyl-8-oxo-8 H-acenaphtho[1,2-b]pyrrole-9-carbonitrile to be detected was added thereinto. 6 hours later, the cells were washed with PBS and hatched away from light with 50 nM Mito Tracker Red CMXRos (chondriosome specific probes; red) for 10 minutes. Then the cells were washed with PBS for three times, and the fluorescent image was scanned with Radiance2000 laser confocal microscopy (Bio-Rad, USA). Meanwhile, dual channel scanning was carried out, one channel was used to scan the green fluorescence of Bax-YFP, and the other channel was used to scan the red fluorescence of the CMXRos probe for indicating the chondriosome. […] When the Bax protein was localized on the chondriosome, the green and red fluorescence was superimposed into orange, as shown in FIG. 4.
Other 8 compounds were detected by the same experimental method as described above. […] Wherein the concentration and time meant that the detected compound simulated the BH3-only protein and driven the BAX to shift towards the chondriosome at the concentration for the time period.

[2] = molecular target: T1, interaction between Bcl-2 and Bax (Homo sapiens, UniProt P10415); test: intracellular fluorescence polarization energy transfer (FRET), Hela cells transfected with Bcl-2-CFP and Bax-YFP; assay type: cell-based; conditions: for Time for which the compound interfered with the interaction between Bcl-2 and Bax: goes with the concentration of E11; for Concentration at which the compound interfered with the interaction between Bcl-2 and Bax: goes with the time of E12
T1 construct: expressed in transfected cells; host or cells: Hela cells
Description: 24 hours later (please refer to FIG. 2), the cells were washed with PBS for three times. The fluorescence value was detected by GENIOS fluorescence enzyme-labelled meter (TECAN, Swiss). In time-dependent experiment, the transfected cells were inoculated in a 6-well plate, after that, 40 μM of the compound was added thereinto. 3, 6 and 24 hours later (FIG. 3), the fluorescence intensities were detected by plate reader. As for the cell group in which only Bcl-2-CFP plasmid was transfected, the values at 475 nm emission wave length and 433 nm excitation wave length were recorded. As for the cell group in which only Bax-YFP plasmid was transfected, the values at 527 nm emission wave length and 505 nm excitation wave length were recorded. […] The ratio of fluorescence intensity at 527 nm and 475 nm emission wave lengths was FRET. The FRET for the control group in which the plasmid was solely transfected was set as 1.0. […] The cellular vitality was detected by MTT method.
Wherein the concentration and time meant that the detected compound interfered with the interaction between Bcl-2 and Bax at the concentration for the time period.

Bcl-2 = test: Western blotting, compounds compared with cyclodextrin inclusion compounds and complexes, Example 24; assay type: cell-based; conditions: Table 9; 10 μM or equivalent of inclusion compound, 24 hours
Description: (§1) The cells were inoculated in a 6-well plate (2×10^5 cells/well). In the compound group, the compound 3-thiomorpholinyl-8-oxo-8H-acenaphtho[1,2-b]pyrrole-9-carbonitrile was dissolved into DMSO until the final concentration reached 10 μM. In the inclusion group, γ-cyclodextrin inclusion, which had been dissolved into water and was equivalent to 10 μM of the compound, was added thereinto. 24 hours later, the cells were washed with PBS for three times, then the cell sample was collected and cracked with 1×10^6/50 μl cell lysis solution (62.5 mM Tris-HCL pH 6.8; 2% SDS; 10% glycerol; 50 mM DTT; 0.01% bromphenol blue) at low temperature, then the solution was centrifuged and the protein supernatant was collected. The sample was boiled at 100° C. for 5 minutes and then was separated by electrophoresis on 12% SDS-PAGE and transferred. The interest protein was detected by the corresponding antibody. The expression of the interest protein in the cells was detected by horseradish peroxidase-labeled secondary antibodies in combination with ECL coloration method. […] The concentration of the protein bands in the Western figures were carried out semiquantitative analysis and normalization treatment with KODAK Gel Logic 1500 imaging system software.

Mcl-1 [3] = test: as above; assay type: cell-based; conditions: Table 8; 10 μM or equivalent of inclusion compound, 24 hours
Description: as §1

[4] = phase solubility experiment (solubility in water before and after cyclodextrin inclusion or complexation); conditions: thermodynamic from solid, Solubility of compounds, Table 1, compound per se, before inclusion

T1 sequence (P10415 whole entry): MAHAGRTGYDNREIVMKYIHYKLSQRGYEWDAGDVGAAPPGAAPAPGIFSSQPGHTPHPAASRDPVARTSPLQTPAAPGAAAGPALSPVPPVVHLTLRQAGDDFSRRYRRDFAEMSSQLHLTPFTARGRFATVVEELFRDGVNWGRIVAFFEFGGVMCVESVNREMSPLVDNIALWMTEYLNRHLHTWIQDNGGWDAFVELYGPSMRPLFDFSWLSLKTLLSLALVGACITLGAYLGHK

Compound	downregulation of Mcl-1 protein, semiquantitative analysis (band concentration, control = 1) (Mcl-1 [1]; 6 hours)	downregulation of Mcl-1 protein, semiquantitative analysis (band concentration, control = 1) (Mcl-1 [1]; 12 hours)	downregulation of Mcl-1 protein, semiquantitative analysis (band concentration, control = 1) (Mcl-1 [1]; 18 hours)	downregulation of Mcl-1 protein, semiquantitative analysis (band concentration, control = 1) (Mcl-1 [1]; 24 hours)	inhibition against Mcl-1 (Mcl-1 [1])	dependence of cytotoxicity on BAX/BAK (MCF-7 cells)	Time for which the compound drove the BAX to shift towards the chondriosome (Bax protein)	Concentration at which the compound drove the BAX to shift towards the chondriosome (Bax protein)	Time for which the compound interfered with the interaction between Bcl-2 and Bax [2]	Concentration at which the compound interfered with the interaction between Bcl-2 and Bax [2]	downregulation of Bcl-2 protein, semiquantitative analysis (band concentration, control = 1) (Bcl-2)	downregulation of Mcl-1 protein, semiquantitative analysis (band concentration, control = 1) (Mcl-1 [3])	solubility [4]
N#CC1=C2C(=NC1=O)c1c(Sc3ccc(N)cc3)ccc3c(Sc4ccc(N)cc4)ccc2c13 [3,6-di(4-aminophenylthio)-8-oxo-8 H-acenaphtho[1,2-b]pyrrole-9-carbonitrile]	0.99	0.99	0.68	0.33	had the inhibition against Bcl-2 and Mcl-1 proteins	absolute dependence on BAX/BAK	6 h	5.0 µM	2 h	1.0 µM	0.75	0.75	0.31 µM (≈ 0.148 µg/mL)
N#CC1=C2C(=NC1=O)c1c(Sc3ccc(Br)cc3)ccc3c(Sc4ccc(Br)cc4)ccc2c13 [3,6-di(4-bromophenylthio)-8-oxo-8H-acenaphtho[1,2-b]pyrrole-9-carbonitrile]	0.99	0.99	0.70	0.57	had the inhibition against Bcl-2 and Mcl-1 proteins	absolute dependence on BAX/BAK	6 h	5.0 µM	2 h	1.0 µM	0.69	0.69	0.16 µM (≈ 0.0967 µg/mL)
N#CC1=C2C(=NC1=O)c1cccc3c(Sc4ccc(Br)cc4)ccc2c13 [3-(4-bromophenylthio)-8-oxo-8H-acenaphtho[1,2-b]pyrrole-9-carbonitrile]	0.99	0.99	0.64	0.31	had the inhibition against Bcl-2 and Mcl-1 proteins	absolute dependence on BAX/BAK	6 h	1.0 µM	2 h	0.5 µM	0.67	0.69	–
N#CC1=C2C(=NC1=O)c1c(Sc3ccc(N)cc3)ccc3cccc2c13 [6-(4-aminophenylthio)-8-oxo-8H-acenaphtho[1,2-b]pyrrole-9-carbonitrile]	0.99	0.99	0.55	0.27	had the inhibition against Bcl-2 and Mcl-1 proteins	absolute dependence on BAX/BAK	6 h	5.0 µM	2 h	0.2 µM	0.74	0.70	0.28 µM (≈ 0.099 µg/mL)
N#CC1=C2C(=NC1=O)c1cccc3cccc2c13 [8-oxo-8H-acenaphtho[1,2-b]pyrrole-9-carbonitrile]	0.99	0.99	0.48	0.21	had the inhibition against Bcl-2 and Mcl-1 proteins	absolute dependence on BAX/BAK	3 h	1.0 µM	2 h	0.1 µM	0.69	0.77	0.12 µM (≈ 0.0276 µg/mL)

Source: patent US20110251188A1, “ACENAPHTHO HETEROCYCLE COMPOUNDS, CYCLODEXTRIN INCLUSION COMPOUNDS AND COMPLEXES, AND USES IN THE MANUFACTURES OF BH3 PROTEIN ANALOGUE, BCL-2 FAMILY PROTEIN INHIBITORS THEREOF” (DALIAN UNIVERSITY OF TECHNOLOGY, priority 2008, published 2011)
